# Test results taken from PubChem BioAssay AID2060599 (Molecular Pharmacology Branch, DTP, NCI, 2025).
# Tested on: 817829-284-R-J1-PDC complex spheroids, viability
# Experiment: Anticancer human tumor 817829-284-R-J1-PDC patient-derived colon adenocarcinoma cell line growth inhibition [CLK]
# Settings: for IC50: curve of first compound; for viability, T/C: stronger effect = lower value
# Description: A high-throughput screen of multi-cell type tumor spheroids was designed to identify active combinations of […] and targeted small molecules. Complex spheroids include a stromal component modeled by human endothelial cells (HUVEC) and fibroblasts modeled by human mesenchymal stem cells (MSCs). The concentration ranges selected for each drug and investigational agent were based upon clinically achievable concentrations if the clinical Cmax of the agent was known.
# Compounds. The drugs and investigational agents: cirtuvivint (SM08502; NSC835563), CC-671 (NSC850746), vemurafenib (NSC761431), tapotoclax (NSC804041), sotorasib (NSC818433), adagrasib (NSC831453), MRTX-1133 (NSC836407), BAY2416964 (NSC825713), copanlisib (NSC816437), inavolisib (NSC800729), abemaciclib (NSC768073), osimertinib (NSC779217), entinostat (NSC756642), eltanexor (KPT-8602, NSC794443), venetoclax (NSC766270), ceralasertib (NSC777638), bortezomib (NSC756655), olaparib (NSC753686), talazoparib (NSC767125), alisertib (NSC759677), peposertib (NSC802822), gemcitabine (NSC613327), 5-fluorouracil (NSC19893), SN-38 (NSC673596), oxaliplatin (NSC266046), paclitaxel (NSC125973), and doxorubicin (NSC123127), were obtained from the National Cancer Institute (NCI) Developmental Therapeutics Program Chemical Repository. The FDA-approved anticancer drug set is available from the Developmental Therapeutics Program at https://dtp.cancer.gov/organization/dscb/obtaining/available plates.htm. […] The stock solutions were prepared in dimethyl sulfoxide (DMSO, Sigma-Aldrich, St. Louis, MO, cat. D2650), except for the platinum complexes which were prepared in saline (Quality Biological, Gaithersburg, MD, cat. 114-055-101), at 800-fold the tested concentration and stored at -70 degrees C prior to their use. All drugs and investigational agents were tested over a range starting from a high concentration at or near the clinical Cmax and decreasing in half-log increments. If the clinical Cmax for an agent had not been determined, the highest concentration tested was 10 microM.
# Cell Culture. All cells were maintained in an incubator at 37 degrees C and 5% CO2 with 95% humidity. The PDC lines were cultured according to standard operating procedures established by the NCI PDMR. Briefly, all PDCs were thawed and cultured in Matrigel-coated flasks prepared with a working solution of 1X Ham's F-12 nutrient mix, without supplementation (Invitrogen, Waltham, MA, cat. 11765054), 100 U/mL penicillin-streptomycin (Invitrogen, cat. 15140122), and 2.5% Matrigel (Corning Inc., Corning, NY, cat. 354248) for the first three passages. The 947758-054-R-J2-PDC line was cultured in 6B/Colon 1A media, which includes advanced DMEM/F-12 (Thermo Fisher Scientific, cat. 12634028), 10 mM HEPES (Thermo Fisher Scientific, cat. 15630080), 1X GlutaMAX supplement (Thermo Fisher Scientific, cat. 35050061), 0.1 mg/mL primocin (InvivoGen, cat. ant-pm-2), 10% defined fetal bovine serum, heat inactivated (HyClone Laboratories Inc., cat. SH30070.03HI), 1.25 mM N-Acetyl-L-cysteine (Sigma-Aldrich, cat. A9165), 10 mM nicotinamide (Sigma-Aldrich, cat. N0636), 1X B-27 supplement (Thermo Fisher Scientific, cat. 17504044), 1X N-2 supplement (Thermo Fisher Scientific, cat. 17502048), and 10 microM Y-27632 dihydrochloride (Tocris Bioscience, cat. 1254). The 876862-298-R-J1-PDC was cultured in 6E media, which includes all 6B/Colon 1A media components plus 50% L-WRN conditioned media (ATCC, cat. CRL-3276), 50 ng/mL recombinant human EGF recombinant protein (hEGF; Thermo Fisher Scientific, cat. PHG0311), 10 ng/mL recombinant human fibroblast growth factor 10 (hGFG-10; PeproTech, cat. 100-26), 1 ng/mL recombinant human fibroblast growth factor 2 (hFGF-2; PeproTech, cat. 100-18B), and 1 µM prostaglandin E2 (PGE2; Tocris, cat. 2296). The 227483-062-R1-J1-PDC line was cultured in Panc media, containing all 6E components except hFGF-2, with the addition of 500 nM SB-431542 (Selleckchem, cat. S1067) and 10 nM gastrin (Tocris, cat. 3006). […]
# [1] = second compound 0.0316 µM, first compound 0.0316 µM
# [2] = second compound 0.0316 µM, first compound 0.1 µM
# [3] = second compound 0.0316 µM, first compound 0.316 µM
# [4] = second compound 0.0316 µM, first compound 1 µM
# [5] = second compound 0.0316 µM, first compound 3.16 µM
# [6] = second compound 0.0316 µM, first compound 10 µM
# [7] = second compound 0.1 µM, first compound 0.0316 µM
# [8] = second compound 0.1 µM, first compound 0.1 µM
# [9] = second compound 0.1 µM, first compound 0.316 µM
# [10] = second compound 0.1 µM, first compound 1 µM
# [11] = second compound 0.1 µM, first compound 3.16 µM
# [12] = second compound 0.1 µM, first compound 10 µM
# [13] = second compound 0.316 µM, first compound 0.0316 µM
# [14] = second compound 0.316 µM, first compound 0.1 µM
# [15] = second compound 0.316 µM, first compound 0.316 µM
# [16] = second compound 0.316 µM, first compound 1 µM
# [17] = second compound 0.316 µM, first compound 3.16 µM
# [18] = second compound 0.316 µM, first compound 10 µM
# [19] = second compound 1 µM, first compound 0.0316 µM
# [20] = second compound 1 µM, first compound 0.1 µM
# [21] = second compound 1 µM, first compound 0.316 µM
# [22] = second compound 1 µM, first compound 1 µM
# [23] = second compound 1 µM, first compound 3.16 µM
# [24] = second compound 1 µM, first compound 10 µM
# [25] = second compound 3.16 µM, first compound 0.0316 µM
# [26] = second compound 3.16 µM, first compound 0.1 µM
# [27] = second compound 3.16 µM, first compound 0.316 µM
# [28] = second compound 3.16 µM, first compound 1 µM
# [29] = second compound 3.16 µM, first compound 3.16 µM
# [30] = second compound 3.16 µM, first compound 10 µM
# [31] = second compound 10 µM, first compound 0.0316 µM
# [32] = second compound 10 µM, first compound 0.1 µM
# [33] = second compound 10 µM, first compound 0.316 µM
# [34] = second compound 10 µM, first compound 1 µM
# [35] = second compound 10 µM, first compound 3.16 µM
# [36] = second compound 10 µM, first compound 10 µM
# 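Note: spheroids exposed to the agents for seven days before readout.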
structure (smiles),measurement,setting,value
Nc1ccn(C2OC(CO)C(O)C2(F)F)c(=O)n1 (stereo unspecified) + CN1CCN(c2cc(C(=O)Nc3cc4cc(-c5cnn(C)c5)ccc4cn3)ccn2)CC1,IC50,second compound 0.0316 µM,< 31.6 nM
same,IC50,second compound 0.1 µM,< 31.6 nM
same,IC50,second compound 0.316 µM,< 31.6 nM
same,IC50,second compound 1 µM,< 31.6 nM
same,IC50,second compound 3.16 µM,< 31.6 nM
same,IC50,second compound 10 µM,< 31.6 nM
same,"viability, T/C",[1],4.65%
same,"viability, T/C",[2],4.62%
same,"viability, T/C",[3],3.63%
same,"viability, T/C",[4],3.9%
same,"viability, T/C",[5],3.03%
same,"viability, T/C",[6],1.88%
same,"viability, T/C",[7],3.65%
same,"viability, T/C",[8],3.83%
same,"viability, T/C",[9],3.7%
same,"viability, T/C",[10],3.47%
same,"viability, T/C",[11],3.1%
same,"viability, T/C",[12],1.72%
same,"viability, T/C",[13],1.66%
same,"viability, T/C",[14],1.94%
same,"viability, T/C",[15],1.74%
same,"viability, T/C",[16],1.53%
same,"viability, T/C",[17],1.54%
same,"viability, T/C",[18],0.9%
same,"viability, T/C",[19],0.14%
same,"viability, T/C",[20],0.08%
same,"viability, T/C",[21],0.09%
same,"viability, T/C",[22],0.07%
same,"viability, T/C",[23],0.14%
same,"viability, T/C",[24],0.07%
same,"viability, T/C",[25],0.11%
same,"viability, T/C",[26],0.14%
same,"viability, T/C",[27],0.17%
same,"viability, T/C",[28],0.09%
same,"viability, T/C",[29],0.11%
same,"viability, T/C",[30],0.09%
same,"viability, T/C",[31],0.05%
same,"viability, T/C",[32],0.09%
same,"viability, T/C",[33],0.09%
same,"viability, T/C",[34],0.09%
same,"viability, T/C",[35],0.11%
same,"viability, T/C",[36],0.11%
COc1ccc([C@@H](O)c2cc(-c3ncnc4cc(N5CCOCC5)ccc34)c(F)cc2Cl)nn1 + CN1CCN(c2cc(C(=O)Nc3cc4cc(-c5cnn(C)c5)ccc4cn3)ccn2)CC1,IC50,second compound 0.0316 µM,429 nM
same,IC50,second compound 0.1 µM,< 31.6 nM
same,IC50,second compound 0.316 µM,< 31.6 nM
same,IC50,second compound 1 µM,< 31.6 nM
same,IC50,second compound 3.16 µM,< 31.6 nM
same,IC50,second compound 10 µM,< 31.6 nM
same,"viability, T/C",[1],79.8%
same,"viability, T/C",[2],69%
same,"viability, T/C",[3],59.6%
same,"viability, T/C",[4],29.3%
same,"viability, T/C",[5],19.4%
same,"viability, T/C",[6],10.3%
same,"viability, T/C",[7],15.4%
same,"viability, T/C",[8],17.1%
same,"viability, T/C",[9],14.9%
same,"viability, T/C",[10],13%
same,"viability, T/C",[11],11.8%
same,"viability, T/C",[12],6.42%
same,"viability, T/C",[13],1.6%
same,"viability, T/C",[14],2.02%
same,"viability, T/C",[15],2.05%
same,"viability, T/C",[16],1.33%
same,"viability, T/C",[17],1%
same,"viability, T/C",[18],0.54%
same,"viability, T/C",[19],0.08%
same,"viability, T/C",[20],0.13%
same,"viability, T/C",[21],0.1%
same,"viability, T/C",[22],0.06%
same,"viability, T/C",[23],0.1%
same,"viability, T/C",[24],0.07%
same,"viability, T/C",[25],0.14%
same,"viability, T/C",[26],0.14%
same,"viability, T/C",[27],0.19%
same,"viability, T/C",[28],0.11%
same,"viability, T/C",[29],0.13%
same,"viability, T/C",[30],0.16%
same,"viability, T/C",[31],0.09%
same,"viability, T/C",[32],0.06%
same,"viability, T/C",[33],0.13%
same,"viability, T/C",[34],0.08%
same,"viability, T/C",[35],0.15%
same,"viability, T/C",[36],0.12%
Cn1ncnc1[C@H]1c2n[nH]c(=O)c3cc(F)cc(c23)N[C@@H]1c1ccc(F)cc1 + CN1CCN(c2cc(C(=O)Nc3cc4cc(-c5cnn(C)c5)ccc4cn3)ccn2)CC1,IC50,second compound 0.0316 µM,2.58 nM
same,IC50,second compound 0.1 µM,< 0.316 nM
same,IC50,second compound 0.316 µM,< 0.316 nM
same,IC50,second compound 1 µM,< 0.316 nM
same,IC50,second compound 3.16 µM,< 0.316 nM
same,IC50,second compound 10 µM,< 0.316 nM
same,"viability, T/C","second compound 0.0316 µM, first compound 0.000316 µM",60.1%
same,"viability, T/C","second compound 0.0316 µM, first compound 0.001 µM",54.6%
same,"viability, T/C","second compound 0.0316 µM, first compound 0.00316 µM",47.3%
same,"viability, T/C","second compound 0.0316 µM, first compound 0.01 µM",43.5%
same,"viability, T/C",[1],32.6%
same,"viability, T/C",[2],24.1%
same,"viability, T/C","second compound 0.1 µM, first compound 0.000316 µM",13.6%
same,"viability, T/C","second compound 0.1 µM, first compound 0.001 µM",14%
same,"viability, T/C","second compound 0.1 µM, first compound 0.00316 µM",15.3%
same,"viability, T/C","second compound 0.1 µM, first compound 0.01 µM",14%
same,"viability, T/C",[7],15.8%
same,"viability, T/C",[8],14.7%
same,"viability, T/C","second compound 0.316 µM, first compound 0.000316 µM",1.91%
same,"viability, T/C","second compound 0.316 µM, first compound 0.001 µM",2.09%
same,"viability, T/C","second compound 0.316 µM, first compound 0.00316 µM",2.16%
same,"viability, T/C","second compound 0.316 µM, first compound 0.01 µM",1.96%
same,"viability, T/C",[13],1.91%
same,"viability, T/C",[14],1.89%
same,"viability, T/C","second compound 1 µM, first compound 0.000316 µM",0.11%
same,"viability, T/C","second compound 1 µM, first compound 0.001 µM",0.08%
same,"viability, T/C","second compound 1 µM, first compound 0.00316 µM",0.09%
same,"viability, T/C","second compound 1 µM, first compound 0.01 µM",0.09%
same,"viability, T/C",[19],0.08%
same,"viability, T/C",[20],0.09%
same,"viability, T/C","second compound 3.16 µM, first compound 0.000316 µM",0.1%
same,"viability, T/C","second compound 3.16 µM, first compound 0.001 µM",0.11%
same,"viability, T/C","second compound 3.16 µM, first compound 0.00316 µM",0.14%
same,"viability, T/C","second compound 3.16 µM, first compound 0.01 µM",0.1%
same,"viability, T/C",[25],0.15%
same,"viability, T/C",[26],0.11%
same,"viability, T/C","second compound 10 µM, first compound 0.000316 µM",0.04%
same,"viability, T/C","second compound 10 µM, first compound 0.001 µM",0.05%
same,"viability, T/C","second compound 10 µM, first compound 0.00316 µM",0.08%
same,"viability, T/C","second compound 10 µM, first compound 0.01 µM",0.06%
same,"viability, T/C",[31],0.07%
same,"viability, T/C",[32],0.09%
